Laboratory results from paper PMC8070582, “Therapeutic Efficacy of a Novel Acetylated Tetrapeptide in Animal Models of Age-Related Macular Degeneration” (International Journal of Molecular Sciences, 2021).
Values joined by “and” are separate entries in the source; they are usually repeats but may differ in a detail not shown here. Identical values can stand only once. “Also recorded” adds a separate entry of the source.

Tests used:
[1] = tested on: VEGF-induced angiogenesis; set-up: method as in PMID 10747021; conditions: slow-releasing hydrogel implants in corneal stroma; assessed on day 12; cited from earlier work
[2] = tested on: choroidal neovascularization (CNV); test: Laser-induced CNV mouse model, treatment on the same day as laser irradiation (CNV area); type: in vivo; conditions: day 7, vs vehicle (p < 0.001)
Procedure: Six-week-old male C57BL/6J mice were purchased from Central Laboratory Animal and then maintained in a specific pathogen free facility in Seoul National University. After deep anesthesia with zolazepam plus tiletamine (3.75 mg/kg, Virbac, Seoul, Korea) and xylazine (7.5 mg/kg, Bayer AG, Leverkusen, Germany), mice were treated with a customized laser indirect ophthalmoscope system (ILOODA) to break Bruch’s membrane (300 μm spot size, 300 mW power, and 100 ms exposure time) as described previously. After the laser irradiation, 10 μL PBS (vehicle), 1 ng of each peptide (RLYE, R(D)LYE and Ac-RLYE), or 145 ng of aflibercept was administered into the vitreous cavity of mice (six per each treatment group) at the same day as laser irradiation. At 7 days after the laser irradiation, the RPE-choroid-scleral complexes were prepared from the enucleated eyes. After immunostaining of the RPE-choroid-scleral complexes with isolectin B4 conjugated with Alexa Fluor-594 (1:100; cat. No. I21413, Invitrogen, Waltham, MA, USA), the CNV area was quantitatively analyzed by the measurement of the area using the ImageJ software. All animal experiments were carried out according to the guidelines of the Ethics Committee for Protection and Use of Experimental Animals of Seoul National University.

[3] = cited from earlier work
[4] = tested on: retinal vascular leakage; test: Streptozotocin-induced diabetic mouse model, retinal vascular leakage; type: in vivo; conditions: 1 µL of 1.5 mM intravitreal; 24 h after treatment; vs vehicle; RLYE 0.01 < p < 0.05, Ac-RLYE p < 0.01
Procedure: To prepare a streptozotocin-induced diabetic mouse model, a freshly prepared STZ solution (100 mM) in a citrate buffer (100 mM, pH 4.5) was injected intraperitoneally at 150 mg/kg into the mice, and to prevent hypoglycemic shock, 10% sucrose was sufficiently provided. After two days, blood glucose was measured using an Accu-Chek Performa blood glucose meter (Roche Diagnostics GmbH, Mannheim, Germany), and when non-fasting blood glucose within 1 to 2 weeks was maintained at 300 mg/dl or more, the mice were used as diabetic animal models. […]. Here, the same amount of PBS was injected into the control group. The peptide was injected, and after 24 h, 1 mL (1.25 mg) of FITC-dextran (250 kDa) was injected into the left ventricle of each mouse to allow circulation for approximately 5 min. The mice were euthanized by cervical dislocation, and the eyeballs were extracted and fixed in 4% paraformaldehyde at room temperature for 1 h. The retina was isolated from the fixed eyeball to prepare a retinal flat mount, and vascular leakage was observed under a confocal microscope. Meanwhile, the fluorescence of FITC-dextran leaked from retinal vessels was measured using Fluoview software.

[5] = tested on: choroidal neovascularization (CNV); test: Therapeutic laser-induced CNV mouse model, treatment 10 days after laser irradiation (CNV area); type: in vivo; conditions: 1 µL of 1.5 mM intravitreal 10 days after laser irradiation; day 4 after treatment
Procedure: […]. Here, the same amount of saline was injected into the control group. After 4 days (14 days after the laser irradiation), an experiment for analyzing a therapeutic effect was carried out by extracting the eyeballs of the mice. The extracted eyeballs were fixed in 4% paraformaldehyde for 12 h, and embedded in paraffin. Sections with a thickness of 4 μm were prepared from paraffin tissue, and subjected to H&E staining. Afterward, an image of a section with the largest choroidal neovascular membrane area was taken from each subject, and the area of the choroidal neovascular membrane was quantitatively analyzed using ImageJ program (NIH, Bethesda, Rockville, MD, USA). In the saline-injected control group, the average of the choroidal neovascular areas was represented as 100%, and a therapeutic effect of each treatment group was analyzed.

[6] = cited from earlier work; remark: listed apart in the source
[7] = tested on: choroidal neovascularization (CNV); test: Rabbit 4-week laser-induced CNV model (retinal fluorescence intensity); type: in vivo; conditions: 2000 µg/eye intravitreal; only until day 14 after CNV induction
Excerpt: From the day of laser irradiation to 7, 14, 21, and 28 days after laser induced CNV, the rabbits were instilled with a 1% Mydriacyl eye drop and then anesthetized.

[8] = tested on: choroidal neovascularization (CNV); test: Rabbit 7-week CNV model, treatment 1 week after laser irradiation; type: in vivo
Procedure: From the day of laser irradiation to 7, 14, 21, 28, 35, 42, and 49 days after laser induced CNV, the rabbits were instilled with a 1% Mydriacyl eye drop and then anesthetized.
Fundus photography of retinal angiography was performed at the 42nd day from test substance treatment. Additionally, the eyes were then removed and fixed in 10% formalin solution for 24 h. The cornea, lens, and retina were removed. After washing with PBS, the […] and choroid complex (RPE-choroid complex) just remained from fixed eyes. The CNV area was stained with rhodamine conjugated isolectin B4 (IB4, Sigma-Aldrich, St. Louis, MO, USA) for 24 h at 4 °C. After staining, they were washed in PBS, flat-mounted on a glass slide, and then observed with a fluorescence microscope equipped with a digital camera and photographed. The CNV area was measured by ImageJ software.

[9] = tested on: corneal neovascularization; set-up: method as in PMID 24240485; conditions: administered on day 7 after suture placement; 1 week post-treatment; cited from earlier work

Substance: ATWLPPR
- VEGF-induced angiogenesis [1]: abolish VEGF-induced angiogenesis

Substance: Arg-Leu-Tyr-Glu (RLYE; printed: Arg-Leu-Tyr-Glu) [antiangiogenic tetrapeptide derived from the human plasminogen kringle-5 domain]
- CNV area ([2]; 1 ng/1 µL/eye intravitreal on day of laser irradiation): significantly reduced
- serum half-life [3]: 1.2 h
- retinal vascular leakage (FITC-dextran) [4]: effectively inhibited
- degree of CNV area reduction compared with vehicle [5]: 55%
- occurrence of CNV (CNV area) [5]: significantly reduced the CNV area; also recorded: effectively reduced

Substance: aflibercept: fusion protein of ligand-binding elements of VEGFR-1 and VEGFR-2 fused to the Fc portion of IgG
- CNV area ([2]; 145 ng/1 µL/eye intravitreal on day of laser irradiation): significantly reduced
- t1/2 (ocular) [6]: 94.1 h
- volume of distribution [6]: 1.4 mL
- retinal fluorescence intensity vs vehicle group [7]: significantly reduced
- retinal fluorescence intensity vs vehicle control ([8]; 2000 µg/eye intravitreal on day 7 after laser, days 7, 14, 21, 28, 35 and 42 after administration): significantly lower
- CNV lesions (CNV area) compared with vehicle control, reduced to ([8]; aflibercept 2000 µg/eye, day 42 after drug administration): 38.9% and 36%

Substance: bevacizumab: anti-VEGF antibody
- degree of reduction of the CNV area compared with vehicle [9]: 46%–60%

Substance: ranibizumab: an anti-VEGF therapy (anti-VEGF antibody), positive control
- t1/2 (ocular) [6]: 52.4 h
- volume of distribution [6]: 2.7 mL
- degree of reduction of the CNV area compared with vehicle [9]: 53%–60%
